Experiment: In vitro glycosyl transferase performance, purified enzymes, % conversion of cannabinoids to cannabinoid glycosides
Assay type: biochemical
Settings: for Conversion % (CBD to the glycoside): acceptor CBD; for Conversion % (THC-glycoside produced): substrate THC; for Conversion % (CBG to the glycoside): acceptor CBG; for Conversion % (CBDV to the glycoside): acceptor CBDV; for Conversion % (11-nor-9-carboxy-THC-glycoside produced): substrate 11-nor-9-carboxy-THC, enzyme PL-113(Tc90A_GA)
Description: For in vitro studies of glycosyl transferase performance in glycosylating cannabinoids, purified Glycosyl transferases were prepared as follows:
5 mL of 2× concentrated LB medium+Ampicillin (50 μg/m L) was inoculated with E. coli XJb (DE3) strains expressing a glycosyl transferase of interest and incubated overnight at 30° C. with shaking. The following day, cell cultures were transferred into 500 mL of 2× concentrated LB medium+Ampicillin (50 μg/mL) and incubated overnight at 30° C. with shaking. The following day, the cell cultures were transferred to 1 L of 2× concentrated LB medium+Ampicillin (50 μg/mL)+3 mM arabinose+0.1 mM IPTG. Cells were incubated for 24 h at 20° C. with shaking. The following day, the cells were collected by centrifugation at 46500×g for 10 mins at 4° C. Cells were resuspended in 20 mL ice-cold GT buffer (50 mM Tris-HCl pH7.4+1 mM phenylmethanesulfonyl fluoride+1 cOmplete™, mini, EDTA-free Protease Inhibitor Cocktail tablet (Roche)). The resuspended material was transferred to a 50 mL falcon tube and kept at −80° C. for at least 15 mins. Falcon tubes were then thawed at room temperature, as the tubes were thawing the following reagents were added; 2.6 mM MgCl2, 1 mM CaCl2, 250 μL of a 1.4 mg/ml DNase solution (Sigma) dissolved in MilliQ water. Tubes were gently inverted to mix then were incubated for 5 mins at 37° C. Binding buffer was then added to the tubes (50 mM Tris-HCl pH7.4, 10 mM imidazole, 500 mM NaCl. 11.25 mL MilliQ water) and the pH adjusted to 7.4 with HCl. The mix was centrifuged at 15550×g for 15 mins at 4° C., the supernatant transferred to a fresh 50 mL falcon tubes and centrifuged again to remove any remaining cellular debris at 48400×g for 20 minutes at 4° C. While the enzyme prep was centrifuging, 3 mL of HIS-Select (available from Sigma P6611) column material was added to a fresh 50 mL tube and washed by adding MilliQ water up to 50 mL, centrifuging at 2000×g for 2 mins and discarding the supernatant. This washing step was repeated. Finally, MilliQ water was added to the HIS-Select material to an approximate 50% volume. Collected supernatant from the centrifuged enzyme preparation was transferred to the tube containing the HIS-Select material through a Miracloth (available from Merck Millipore), and then incubated at 4° C. with gently shaking by inversion for 2 h. After 2 h the mix was centrifuged at 2000×g for 4 minutes at 4° C. and the supernatant discarded. The remaining HIS-Select material was washed twice with 1× binding buffer (50 mM Tris-HCl, 0.5M NaCl, 10 mM Imidazole, pH 7.4) with centrifugation at 2000×g for 4 minutes at 4° C. The HIS-Select material was resuspended in 5 mL 1× binding buffer and transferred to a Poly-Prep®Chromatography Column (available from BioRad, 7311550). The HIS-Select material was kept at 4° C. and washed twice with 1× binding buffer by filling up the column and allowing it to drip through. Finally, purified Glycosyl transferases were eluted from the HIS-Select material by adding 7.5 mL of elution buffer (50 mM Tris-HCl, 500 mM Imidazole, pH7.4) and collecting the flow through. Enzymes were used immediately in in vitro enzyme assays or stored at −20° C. in 50% glycerol until needed.
In vitro conversion of various cannabinoids to cannabinoid glycosides was carried out according to table 21. Alkaline phosphatase was provided by New England Biolabs (M0371S). Cannabinoids were dissolved in methanol. The UDP-sugar (e.g. UDP-glucose) was provided by a commercial supplier (e.g. Sigma) or produced by in vitro enzymatic conversion from a commercially available UDP-sugar as shown in Example 21.
The reaction mixture was scaled up or down as required. The reaction mixture was incubated without shaking at 30° C. for 24 hours. Extraction and analysis were performed as described above for this example. […]

[1] = UDP-Glucose, enzyme PL-214(Cs73Y_GA)
[2] = UDP-Xylose, enzyme PL-214(Cs73Y_GA)

Molecule: CBD-1′-O-β-D-tri-glucoside [OB7]
- Conversion % (CBD to the glycoside) [1]: 27.3%

Molecule: CCCCCc1cc(O[C@@H]2O[C@H](CO)[C@@H](O)[C@H](O)[C@H]2O)c2c(c1)OC(C)(C)[C@@H]1CCC(C)=C[C@@H]21 [OB20, THC-1′-O-β-D-glucoside]
- Conversion % (THC-glycoside produced) (sugar donor UDP-Glucose, enzyme PL-182(Ha88B_2_GA)): 74.9%

Molecule: CCCCCc1cc(O)c(C/C=C(\C)CCC=C(C)C)c(O[C@@H]2OC[C@@H](O)[C@H](O)[C@H]2O)c1 [OB36]
- Conversion % (CBG to the glycoside) [2]: 1.0%

Molecule: C=C(C)C1CCC(C)=CC1c1c(O)cc(CCCCC)cc1O[C@@H]1O[C@H](CO)[C@@H](O)[C@H](O[C@@H]2O[C@H](CO)[C@@H](O)[C@H](O)[C@H]2O)[C@H]1O (stereo partly drawn) [OB2, CBD-1′-O-β-D-laminaribioside]
- Conversion % (CBD to the glycoside) (UDP-Glucose, enzymes PL-159(Pt88G_GA) + PL-55(Sr76G1_GA)): 80.7%

Molecule: C=C(C)C1CCC(C)=CC1c1c(O)cc(CCCCC)cc1OC1OC(CO)C(O)C(O)C1O (stereo not shown) [OB16]
- Conversion % (CBD to the glycoside) (UDP-Galactose, enzyme PL-214(Cs73Y_GA)): 62%

Molecule: C=C(C)[C@@H]1CCC(C)=C[C@H]1c1c(O)cc(CCC)cc1O[C@@H]1O[C@H](CO)[C@@H](O)[C@H](O)[C@H]1O [OB24, CBDV-1′-O-β-D-glucoside]
- Conversion % (CBDV to the glycoside) (UDP-Glucose, enzyme PL-326(Ha72B_GA)): 92.6%

Molecule: C=C(C)[C@@H]1CCC(C)=C[C@H]1c1c(O[C@@H]2O[C@H](CO)[C@@H](O)[C@H](O)[C@H]2O)cc(CCC)cc1O[C@@H]1O[C@H](CO)[C@@H](O)[C@H](O)[C@H]1O [OB25, CBDV-1′-O-β-O-glucosyl-3′-O-β-D-glucoside]
- Conversion % (CBDV to the glycoside) (UDP-Glucose, enzyme PL-342(Cp73B_GA)): 4.5%

Molecule: CBG-1′-O-β-D-tetra-xyloside [OB40]
- Conversion % (CBG to the glycoside) [2]: 1.2%

Molecule: CCCCCc1cc(O[C@@H]2O[C@H](CO)[C@@H](O)[C@H](O)[C@H]2O)c2c(c1)OC(C)(C)[C@@H]1CCC(C(=O)O)=C[C@@H]21 [OB41, 11-nor-9-carboxy-THC-1′-O-β-D-glucoside]
- Conversion % (11-nor-9-carboxy-THC-glycoside produced) (sugar donor UDP-Glucose): 70.2%

Molecule: C=C(C)C1CCC(C)=CC1c1c(O)cc(CCCCC)cc1OC1OC(COC2OC(CO)C(O)C(O)C2O)C(O)C(O)C1O (stereo not shown) [OB3]
- Conversion % (CBD to the glycoside) (UDP-Glucose, enzymes PL-159(Pt88G_GA) + PL-152(Si94D_GA)): 96.4%

Molecule: CBD-1′-O-β-D-glucosyl-3′-O-β-D-di-glucoside [OB8]
- Conversion % (CBD to the glycoside) [1]: 12.3%

Molecule: CCCCCc1cc(O[C@@H]2O[C@H](CO)[C@@H](O)[C@H](O)[C@H]2O)c(C/C=C(\C)CCC=C(C)C)c(O[C@@H]2O[C@H](CO)[C@@H](O)[C@H](O)[C@H]2O)c1 [OB33, CBG-1′-O-β-D-glucosyl-3′-O-β-D-glucoside]
- Conversion % (CBG to the glycoside) (UDP-Glucose, enzyme PL-5(At73C5_GA)): 4.5%

Molecule: C=C(C)C1CCC(C)=CC1c1c(O)cc(CCC)cc1OC1OCC(O)C(O)C1O (stereo not shown) [OB29]
- Conversion % (CBDV to the glycoside) [2]: 12.1%

Molecule: CCCCCc1cc(OC2OCC(O)C(O)C2O)c2c(c1)OC(C)(C)C1CCC(C)=CC21 (stereo not shown) [OB21]
- Conversion % (THC-glycoside produced) (sugar donor UDP-Xylose, enzyme PL-214(Cs73Y_GA)): 19.5%

Molecule: C=C(C)C1CCC(C)=CC1c1c(O)cc(CCCCC)cc1OC1OC(C(=O)O)C(O)C(O)C1O (stereo not shown) [OB14]
- Conversion % (CBD to the glycoside) (UDP-Glucuronic Acid, enzyme PL-214(Cs73Y_GA)): 2.0%

Molecule: C=C(C)C1CCC(C)=CC1c1c(O)cc(CCCCC)cc1O[C@@H]1OC[C@@H](O)[C@H](O)[C@H]1O (stereo partly drawn) [OB9, CBD-1′-O-β-D-xyloside]
- Conversion % (CBD to the glycoside) (UDP-Xylose, enzyme PL-159(Pt88G_GA)): 12.4%

Molecule: CBN-1′-O-β-D-di-glucoside [OB23]
- Conversion % (CBN-glycoside produced) (substrate CBN, sugar donor UDP-Glucose, enzyme PL-342(Cp73B_GA)): 100%

Molecule: CCCCCc1cc(O)c(C/C=C(\C)CCC=C(C)C)c(O[C@@H]2O[C@H](CO)[C@@H](O)[C@H](O)[C@H]2O)c1 [OB32, CBG-1′-O-β-D-glucoside]
- Conversion % (CBG to the glycoside) (UDP-Glucose, enzyme PL-340(Qs72S_1_GA)): 98.9%

Molecule: 11-nor-9-carboxy-THC-1′-O-β-D-di-glucoside [OB42]
- Conversion % (11-nor-9-carboxy-THC-glycoside produced) (sugar donor UDP-Glucose): 3.4%

Molecule: C=C(C)C1CCC(C)=CC1c1c(OC2OC(CO)C(O)C(O)C2O)cc(CCCCC)c(C(=O)O)c1O [OB31, CBDA-1′-O-β-D-glucoside]
- Conversion % (CBDA to the glycoside) (acceptor CBDA, UDP-Glucose, enzyme PL-214(Cs73Y_GA)): 92%

B1: Cp7.38: glycosyl transferase, SEQ ID NO: 191, 192 (protein)
chain: MGSEVLHHDYSQLNIFFFPFMAHGHMIPTLDMAKLFATHGAKTSIITTPLNLPFFSKSIERFSKQTGLEIGVKLLNFPSVEVGLPSGCENADSLPAGEPLIVNKFFAAAGMLKDPLERLLQEFKPDCLIADMFFPWTTDAAAKFDIPRLVFHGTSFFALSASECIRLYTPFNNVSSDSEPFLVPTLPDEIRLTRNQLADFAMKEGDENGIHRLIKEAKESELKSYGVVVNSFYELEPAYADHYRNFLKRKAWHIGPVSLCNKTVEDKAERGKRASIDEDECLKWLNSKAPNSVIYICFGSMANFNSAQLMEIATALDASGQEFIWVVRREKNENNQEDWLPEGFEQRTEGKGLIIRGWAPQVLILEHEAVGGFVTHCGWNSTLEGVTAGMPMVTWPVSAEQFYNEKLVTEVLKIGLSVGVKKWVRSEGDFVSREKVEQAVREIMVGSEAVERRMRAKAMADMARAAVEKGGSSYNDLNALLREVSLMRRQQSQNQ
- conversion of cannabinoid aglycone to cannabinoid glycoside in 24 h (CBN to CBN-1′-O-β-D-di-glucoside (OB23)): 100%

B2: Pt78G: glycosyl transferase, SEQ ID NO: 165, 166 (protein)
chain: MSEARNDLKHIAVLAFPVATHGPPLLSLVRRLSASASYAKFSFFSTKESNSKLFSKEDGLENIKPYNVSDGLPENYNFAGNLDEVMNYFFKATPGNFKQAMEVAVKEVGKDFTCIMSDAFLWFAADFAQELHVPWVPLWTSSSRSLLLVLETDLVHQKMRSIINEPEDRTIDILPGFSELRGSDIPKELFHDVKESQFAAMLCKIGLALPQAAVVASNSFEELDPDAVILFKSRLPKFLNIGPFVLTSPDPFMSDPHGCLEWLDKQKQESVVYISFGSVISLPPQELAELVEALKECKLPFLWSFRGNPKEELPEEFLERTKEKGKVVSWTPQLKVLRHKAIGVFVTHSGWNSVLDSIAGCVPMICRPFFGDQTVNTRTIEAVWGTGLEIEGGRITKGGLMKALRLIMSTDEGNKMRKKLQHLQGLALDAVQSSGSSTKNFETLLEVVAK
- conversion of cannabinoid aglycone to cannabinoid glycoside in 24 h (CBG to CBG-1′-O-β-D-glucosyl-3′-O-β-D-glucoside (OB33)): 100%
